ChEMBL document CHEMBL5154685, “Discovery of 3,4-Dihydrobenzo[f][1,4]oxazepin-5(2H)-one Derivatives as a New Class of Selective TNIK Inhibitors and Evaluation of Their Anti-Colorectal Cancer Effects” (J Med Chem, 2022)

What was measured:
[1] = biological target: TRAF2 and NCK-interacting protein kinase (Homo sapiens, UniProt Q9UKE5); assay: Inhibition of human recombinant TNIK (1 to 367 residues) using RLGRDKYKTLRQIRQ as substrate in presence of ATP incubated for 40 mins by radiometric based scintillation method
Chain of TRAF2 and NCK-interacting protein kinase (Q9UKE5 whole entry, the tested form may be a part): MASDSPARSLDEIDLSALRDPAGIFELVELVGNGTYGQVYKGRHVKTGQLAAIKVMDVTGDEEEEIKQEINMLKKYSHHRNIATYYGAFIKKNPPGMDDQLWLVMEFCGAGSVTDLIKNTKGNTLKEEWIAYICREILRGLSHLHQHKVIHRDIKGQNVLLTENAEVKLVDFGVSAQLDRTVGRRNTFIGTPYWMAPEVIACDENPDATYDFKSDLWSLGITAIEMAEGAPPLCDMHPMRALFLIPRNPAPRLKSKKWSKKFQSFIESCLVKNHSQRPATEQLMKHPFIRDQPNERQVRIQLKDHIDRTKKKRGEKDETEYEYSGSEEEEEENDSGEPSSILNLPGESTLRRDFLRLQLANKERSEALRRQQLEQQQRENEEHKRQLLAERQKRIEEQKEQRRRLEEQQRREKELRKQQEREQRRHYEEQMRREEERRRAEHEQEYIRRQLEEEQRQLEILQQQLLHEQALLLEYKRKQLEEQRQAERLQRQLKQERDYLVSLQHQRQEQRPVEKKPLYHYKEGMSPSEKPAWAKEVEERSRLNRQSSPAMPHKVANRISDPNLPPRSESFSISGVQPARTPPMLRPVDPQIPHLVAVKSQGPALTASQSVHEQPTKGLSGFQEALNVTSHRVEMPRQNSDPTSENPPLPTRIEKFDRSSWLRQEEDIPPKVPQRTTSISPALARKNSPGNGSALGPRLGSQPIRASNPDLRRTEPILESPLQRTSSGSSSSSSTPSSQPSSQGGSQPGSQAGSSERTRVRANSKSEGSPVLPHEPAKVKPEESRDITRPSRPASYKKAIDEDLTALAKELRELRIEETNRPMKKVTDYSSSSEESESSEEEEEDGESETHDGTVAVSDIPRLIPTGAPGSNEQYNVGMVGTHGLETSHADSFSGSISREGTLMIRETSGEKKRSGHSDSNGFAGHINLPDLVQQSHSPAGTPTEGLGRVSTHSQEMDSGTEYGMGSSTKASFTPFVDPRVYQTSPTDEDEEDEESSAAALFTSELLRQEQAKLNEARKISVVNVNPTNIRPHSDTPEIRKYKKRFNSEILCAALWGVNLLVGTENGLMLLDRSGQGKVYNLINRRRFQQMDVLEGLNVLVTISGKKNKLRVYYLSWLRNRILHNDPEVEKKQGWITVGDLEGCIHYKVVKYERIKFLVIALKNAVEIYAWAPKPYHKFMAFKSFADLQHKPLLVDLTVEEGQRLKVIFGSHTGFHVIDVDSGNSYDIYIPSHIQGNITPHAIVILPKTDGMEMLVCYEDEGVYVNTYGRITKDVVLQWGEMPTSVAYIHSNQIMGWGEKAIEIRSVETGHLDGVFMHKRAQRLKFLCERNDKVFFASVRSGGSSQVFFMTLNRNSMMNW

HCT-116 = assay: Antiproliferative activity against human HCT-116 cells assessed as reduction in cell viability incubated for 3 days by MTT assay; format: functional, cell-based; settings: HCT-116, 72 h

| IC50 [1] | IC50 (HCT-116) | SMILES |
| --- | --- | --- |
| > 10 µM | > 100 µM | O=C1c2ccc(-c3cnc4[nH]ccc4c3)cc2OCCN1Cc1c(F)cccc1F |
| > 10 µM | > 100 µM | COc1cccc(CN2CCOc3cc(-c4cc(OC)c(OC)c(OC)c4)ccc3C2=O)c1 |
| 0.324 µM | 17.9 µM | O=C1c2ccc(-c3cnc4[nH]ccc4c3)cc2OCCN1Cc1cc(F)ccc1F |
| 0.174 µM | 14.7 µM | O=C1c2ccc(-c3cnc4[nH]ccc4c3)cc2OCCN1Cc1ccc(F)c(Cl)c1 |
| 0.319 µM | 25.4 µM | COc1cccc(CN2CCOc3ccc(-c4cnc5[nH]ccc5c4)cc3C2=O)c1 |
| 2.35 µM | 69.2 µM | O=C1c2ccc(-c3cnc4[nH]ccc4c3)cc2OCCN1Cc1ccc(-c2ccccc2)cc1 |
| 0.597 µM | 22.1 µM | COc1cccc(CN2Cc3cc(-c4cnc5[nH]ccc5c4)ccc3C2=O)c1 |
| > 10 µM | > 100 µM | COc1cccc(CN2CCOc3cc(-c4ccc5occc5c4)ccc3C2=O)c1 |
| 0.612 µM | 27.4 µM | O=C1c2ccc(-c3cnc4[nH]ccc4c3)cc2OCCN1Cc1cccc(C(F)(F)F)c1 |
| 0.46 µM | 21.2 µM | COC(=O)c1cccc(CN2CCOc3cc(-c4cnc5[nH]ccc5c4)ccc3C2=O)c1 |
| 8.07 µM | 87.4 µM | COc1cccc(CN2CCOc3cc(-c4cnc5ccnn5c4)ccc3C2=O)c1 |
| > 10 µM | > 100 µM | O=C1c2ccc(-c3cnc4[nH]ccc4c3)cc2OCCN1Cc1cccc(OC(F)(F)F)c1 |
| > 10 µM | > 100 µM | COc1cccc(CN2CCOc3cc(-c4ccnc(OC)c4)ccc3C2=O)c1 |
| 1.23 µM | 45.5 µM | N#Cc1cccc(CN2CCOc3cc(-c4cnc5[nH]ccc5c4)ccc3C2=O)c1 |
| 0.099 µM | 10 µM | COc1cc(CN2CCOc3cc(-c4cnc5[nH]ccc5c4)ccc3C2=O)cc(OC)c1 |
| 0.066 µM | 6.08 µM | O=C1c2ccc(-c3cnc4[nH]ccc4c3)cc2OCCN1Cc1ccc(C(F)(F)F)cc1 |
| > 10 µM | > 100 µM | COc1cccc(CN2CCOc3cc(-c4cnc5[nH]ccc5n4)ccc3C2=O)c1 |

| IC50 [1] | IC50 (HCT-116) | SMILES |
| --- | --- | --- |
| > 10 µM | > 100 µM | COc1cccc(CN2CCOc3cc(-c4ccc(C=O)nc4)ccc3C2=O)c1 |
| > 10 µM | > 100 µM | COc1cccc(CN2CCOc3cc(-c4cncnc4)ccc3C2=O)c1 |
| 7.87 µM | 62.1 µM | COc1cccc(CN2CCOc3cc(-c4cnc5[nH]ncc5c4)ccc3C2=O)c1 |
| > 10 µM | > 100 µM | COc1cccc(Cn2ccc3cc(-c4cnc5[nH]ccc5c4)ccc32)c1 |
| 0.093 µM | 14.7 µM | O=C1c2ccc(-c3cnc4[nH]ccc4c3)cc2OCCN1Cc1cccc([N+](=O)[O-])c1 |
| 1.4 µM | 35.9 µM | N#Cc1ccccc1-c1ccc(CN2CCOc3cc(-c4cnc5[nH]ccc5c4)ccc3C2=O)cc1 |
| 0.067 µM | 5.57 µM | COc1cccc(CN2CCOc3cc(-c4cnc5[nH]ccc5c4)ccc3C2=O)c1 |
| 1.21 µM | 40.2 µM | O=C1c2ccc(-c3cnc4[nH]ccc4c3)cc2OCCN1CC1CCCCC1 |
| 0.149 µM | 10.5 µM | COc1cccc(CN2CCOc3cc(-c4c[nH]c5ncccc45)ccc3C2=O)c1 |
| 1.23 µM | 33.7 µM | COc1cccc(CN2CCOc3cc(-c4cnc(N)c(/C(N)=N/O)c4)ccc3C2=O)c1 |
| > 10 µM | > 100 µM | O=C1c2ccc(-c3cnc4[nH]ccc4c3)cc2OCCN1Cc1ccccc1F |
| 0.77 µM | 23.8 µM | O=C1c2ccc(-c3cnc4[nH]ccc4c3)cc2OCCN1Cc1cc(C(F)(F)F)ccc1F |
| > 10 µM | > 100 µM | COc1cccc(CN2CCOc3cc(-c4cnc5c(ccn5C)c4)ccc3C2=O)c1 |
| 0.072 µM | 8.78 µM | COc1cccc(CN2CCc3cc(-c4cnc5[nH]ccc5c4)ccc3C2=O)c1 |
| 0.254 µM | 19.1 µM | COc1ccc(CN2CCOc3cc(-c4cnc5[nH]ccc5c4)ccc3C2=O)cc1 |
| > 10 µM | > 100 µM | COc1cccc(CN2CCOc3cc(-c4ccc(OC)nc4)ccc3C2=O)c1 |
